Assay [1] has as its target Muscarinic acetylcholine receptor M3 (Rattus norvegicus, UniProt P08483). Kind of assay: Compound was tested for inhibiting [3H]N-Methyl-scopolamine Binding to Muscarinic receptor (M3) in Rat Submaxillary Gland.
The target in assay [2] is T1, Muscarinic acetylcholine receptor M2 (Rattus norvegicus, UniProt P10980).
T1 sequence (P10980 whole entry): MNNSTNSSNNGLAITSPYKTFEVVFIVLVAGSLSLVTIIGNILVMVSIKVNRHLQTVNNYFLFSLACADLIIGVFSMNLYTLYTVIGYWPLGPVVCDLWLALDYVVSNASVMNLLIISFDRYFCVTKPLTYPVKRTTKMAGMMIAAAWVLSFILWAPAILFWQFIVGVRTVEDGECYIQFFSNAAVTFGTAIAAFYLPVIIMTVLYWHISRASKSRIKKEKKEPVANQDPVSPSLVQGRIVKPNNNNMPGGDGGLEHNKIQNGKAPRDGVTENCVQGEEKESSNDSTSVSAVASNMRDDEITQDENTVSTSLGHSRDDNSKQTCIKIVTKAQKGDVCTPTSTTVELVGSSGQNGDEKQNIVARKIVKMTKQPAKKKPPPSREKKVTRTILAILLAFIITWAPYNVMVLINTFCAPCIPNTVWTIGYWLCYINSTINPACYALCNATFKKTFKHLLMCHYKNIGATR
Kind of assay: Compound was tested for inhibiting [3H]N-Methyl-scopolamine Binding to Muscarinic receptor (M2) in Rat Heart.

Assay [3] addresses T2, Muscarinic acetylcholine receptor M1 (Rattus norvegicus, UniProt P08482).
T2 sequence (P08482 whole entry): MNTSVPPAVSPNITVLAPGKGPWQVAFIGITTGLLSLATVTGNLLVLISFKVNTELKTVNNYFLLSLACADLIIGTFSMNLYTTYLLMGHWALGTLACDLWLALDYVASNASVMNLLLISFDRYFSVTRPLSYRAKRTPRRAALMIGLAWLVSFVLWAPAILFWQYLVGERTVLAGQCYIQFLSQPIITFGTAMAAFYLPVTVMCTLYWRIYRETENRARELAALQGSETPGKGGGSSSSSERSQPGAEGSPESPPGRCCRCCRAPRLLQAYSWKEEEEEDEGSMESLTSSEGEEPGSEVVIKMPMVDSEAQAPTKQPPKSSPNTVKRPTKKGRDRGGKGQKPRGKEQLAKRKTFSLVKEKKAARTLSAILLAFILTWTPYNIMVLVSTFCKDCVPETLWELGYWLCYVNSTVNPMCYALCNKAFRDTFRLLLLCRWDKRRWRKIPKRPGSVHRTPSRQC
Kind of assay: Compound was tested for inhibiting [3H]pirenzepine Binding to Muscarinic receptor (M1) receptor in Rat Cortex Homogenates.

Assay [4] addresses Muscarinic acetylcholine receptor M3 (Cavia porcellus, UniProt Q8VH26). Briefly: Evaluation of antagonistic affinity against muscarinic receptor (M3) in guinea pig ileum. The following applies: read-out: pA2 (converted). It is filed as functional, tissue-based.
For assay [5], the target named is Muscarinic acetylcholine receptor M2 (Cavia porcellus). Briefly: Evaluation of antagonistic affinity against muscarinic receptor (M2) in guinea pig left atria. As to conditions: read-out: pA2 (converted).
Assay [6] addresses T3, Muscarinic acetylcholine receptor M4 (Homo sapiens, UniProt P08173).
T3 sequence (P08173 whole entry): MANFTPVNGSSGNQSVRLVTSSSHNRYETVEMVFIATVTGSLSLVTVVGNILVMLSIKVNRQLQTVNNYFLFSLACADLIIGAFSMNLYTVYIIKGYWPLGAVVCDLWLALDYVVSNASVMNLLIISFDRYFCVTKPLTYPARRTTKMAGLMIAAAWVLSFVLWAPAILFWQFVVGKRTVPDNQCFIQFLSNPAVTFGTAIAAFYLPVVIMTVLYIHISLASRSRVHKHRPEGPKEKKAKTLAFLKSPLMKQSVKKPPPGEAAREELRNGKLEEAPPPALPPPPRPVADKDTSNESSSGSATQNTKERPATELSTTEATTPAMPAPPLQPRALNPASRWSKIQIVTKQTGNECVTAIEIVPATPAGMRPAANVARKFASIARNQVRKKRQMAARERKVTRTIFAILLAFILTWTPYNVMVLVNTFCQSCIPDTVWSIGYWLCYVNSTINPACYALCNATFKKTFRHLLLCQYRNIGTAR
Kind of assay: Compound was tested for binding affinity against Muscarinic acetylcholine receptor M4 in NG 108-15 cell homogenates. In kind it is cell-based.

Muscarinic acetylcholine receptor M3 (Rattus norvegicus, UniProt P08483), sequence (P08483 whole entry): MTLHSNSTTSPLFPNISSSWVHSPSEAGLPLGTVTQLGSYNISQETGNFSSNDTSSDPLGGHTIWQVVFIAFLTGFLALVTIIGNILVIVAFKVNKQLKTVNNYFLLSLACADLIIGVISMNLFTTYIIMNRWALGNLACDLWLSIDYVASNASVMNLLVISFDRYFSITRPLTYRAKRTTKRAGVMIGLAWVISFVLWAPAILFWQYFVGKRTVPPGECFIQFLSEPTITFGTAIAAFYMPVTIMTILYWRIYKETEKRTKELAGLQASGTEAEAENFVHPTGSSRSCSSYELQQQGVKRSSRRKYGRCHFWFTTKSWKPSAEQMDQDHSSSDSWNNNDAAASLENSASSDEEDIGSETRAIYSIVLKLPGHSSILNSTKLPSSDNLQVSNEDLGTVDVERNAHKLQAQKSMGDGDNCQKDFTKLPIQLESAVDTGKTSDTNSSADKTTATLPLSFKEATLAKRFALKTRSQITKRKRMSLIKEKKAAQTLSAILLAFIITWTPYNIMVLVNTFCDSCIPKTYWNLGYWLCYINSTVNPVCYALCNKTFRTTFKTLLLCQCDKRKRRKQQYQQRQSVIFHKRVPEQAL
Muscarinic acetylcholine receptor M3 (Cavia porcellus, UniProt Q8VH26), sequence (Q8VH26 whole entry): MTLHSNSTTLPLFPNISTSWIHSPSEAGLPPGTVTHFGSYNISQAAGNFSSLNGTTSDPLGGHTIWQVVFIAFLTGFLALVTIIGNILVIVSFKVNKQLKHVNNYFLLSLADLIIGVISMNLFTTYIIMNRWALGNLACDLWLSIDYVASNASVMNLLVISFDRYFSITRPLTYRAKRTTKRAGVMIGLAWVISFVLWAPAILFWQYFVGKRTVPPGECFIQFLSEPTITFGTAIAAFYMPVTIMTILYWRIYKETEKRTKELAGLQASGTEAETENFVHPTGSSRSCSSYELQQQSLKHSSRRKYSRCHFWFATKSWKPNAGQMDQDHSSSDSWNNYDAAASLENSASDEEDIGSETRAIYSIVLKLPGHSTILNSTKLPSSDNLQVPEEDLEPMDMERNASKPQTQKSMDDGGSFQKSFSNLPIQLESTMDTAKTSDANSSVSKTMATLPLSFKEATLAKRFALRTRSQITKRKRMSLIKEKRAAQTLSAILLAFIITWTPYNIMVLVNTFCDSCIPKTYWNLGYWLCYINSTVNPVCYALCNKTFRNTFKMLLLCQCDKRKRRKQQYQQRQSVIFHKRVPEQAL

What is called Ki is a dissociation constant, usually derived from enzyme kinetics or from competition with a known ligand. Higher therefore signals weaker binding. Regarding `C[N+]1(C)CCC2(CC1)OC(=O)C(c1ccccc1)(c1ccccc1)O2`, the Ki was 2.95 nM in assay [1], 2.75 nM in assay [2] and 5.01 nM in assay [3]. The Kb is 0.933 nM in assay [4] and 1.23 nM in assay [5].

With `C[N+]1(C)C2CCC1CC1(C2)OC(=O)C(c2ccccc2)(c2ccccc2)O1` (stereo in doubt; 4a), the values for the Ki in assay [1], in assay [6] and in assay [3] were 10.5 nM, 4.68 nM and 0.398 nM, respectively. Further, the Kb in assay [4] is 3.63 nM.

As to `C[N+]1(C)C2CCC1CC1(C2)OC(=O)C(c2ccccc2)(c2ccccc2)O1` (stereo in doubt; 4b), the inhibitory constant (Ki) in assay [1] is 50.1 nM; in assay [6], 4.37 nM; in assay [3] it was 0.794 nM. Further, the Kb in assay [4] is 20.9 nM.

In assay [3], `C[N+]1(C)CCC(OC(=O)C(c2ccccc2)c2ccccc2)CC1` [4-DAMP] showed a Ki of 0.589 nM.

Source of the values: ChEMBL document CHEMBL1159156, “Design, synthesis and biological activity of some 4-DAMP- related compounds” (Bioorg Med Chem Lett, 1995).
